The record followed here is patent US12410179B2, “Modulators of TNF alpha activity and uses thereof” (RayThera, Inc., priority 2023, dated 2025).

TNFα, sequence (P01375 77-233 limits assumed): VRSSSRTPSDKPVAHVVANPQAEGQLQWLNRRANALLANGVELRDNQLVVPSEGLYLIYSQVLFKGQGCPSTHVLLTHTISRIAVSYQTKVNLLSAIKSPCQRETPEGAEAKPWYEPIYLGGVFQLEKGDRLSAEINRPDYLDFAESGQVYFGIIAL

For the assay, the target named is TNFα (Homo sapiens, UniProt P01375). Put plainly: HEK-Blue hTNFα reporter assay. It counts as cell-based. On the set-up: purchased R&D biosystem (R&D Systems) 210-TA-020/CF. As to conditions: HEK-Blue hTNFα reporter cells, SEAP readout; read-out: IC50 Range. An outline of the steps:
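IC50 from 4-parameter regression of % inhibition, with OD620 of secreted SEAP (QUANTI-Blue, 1 h) referenced to cells with and without hTNFα. HEK-Blue TNFα reporter cells were exposed 24 h to compound premixed 1 h with hTNFα ([…]).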
On the technique in general: Reporter assays use an easily measured gene product as a stand-in for the process of interest.
Consider `[2H]C([2H])([2H])N1C(=O)c2cccc(OC(F)F)c2[C@H]2C[C@@H]1c1nn3ccc(-c4ncc(C5(N)CCC5)cn4)cc3c12` [Example 211], for which the IC50 (commonly the midpoint of a concentration-inhibition curve) is < 25 nM.

For `C[C@]1(C#N)C[C@](N)(c2ccc(-c3ccn4nc5c(c4c3)[C@@H]3C[C@H]5NC(=O)c4cccc(OC(F)F)c43)cn2)C1` [Example 212], the IC50 is < 25 nM.

Turning to `[2H]C([2H])([2H])N1C(=O)c2cccc(OC(F)F)c2[C@H]2C[C@@H]1c1nn3cc(F)c(-c4cnc([C@]5(N)C[C@@](C)(C#N)C5)nc4)nc3c12` [Example 213], the IC50 was < 25 nM.

As to `[2H]C([2H])([2H])N1C(=O)c2cccc(OC(F)F)c2[C@H]2C[C@@H]1c1nn3cc(F)c(-c4cnc([C@]5(N)C[C@@](C)(O)C5)cn4)cc3c12` [Example 214], the half-inhibitory concentration (IC50) was < 25 nM.

With `[2H]C([2H])([2H])N1C(=O)c2cccc(OC(F)F)c2[C@H]2C[C@@H]1c1nn3cc(C)c(-c4cnc([C@]5(N)C[C@@](C)(O)C5)nc4)nc3c12` [Example 215], the IC50 is < 25 nM.

In the case of `[2H]C([2H])([2H])N1C(=O)c2cccc(OC(F)F)c2[C@H]2C[C@@H]1c1nn3cc(C)c(-c4cnc(C5(N)CCC5)nc4)nc3c12` [Example 216], the IC50 was < 25 nM.

For the compound `C[C@]1(C#N)C[C@](N)(c2ccc(-c3ccn4nc5c(c4n3)[C@@H]3C[C@H]5NC(=O)c4cccc(OC(F)F)c43)cn2)C1` [Example 217], the IC50 was < 25 nM.

In the case of `[2H]C([2H])([2H])N1C(=O)c2cccc(OC(F)F)c2[C@H]2C[C@@H]1c1nn3ccc(-c4cnc([C@]5(N)C[C@@](C)(O)C5)nc4)nc3c12` [Example 218], the IC50 is < 25 nM.

As to `C[C@]1(O)C[C@](N)(c2ccc(-c3ccn4nc5c(c4n3)[C@@H]3C[C@H]5NC(=O)c4cccc(OC(F)F)c43)cn2)C1` [Example 220], the IC50 was 25 to 100 nM.

As to `[2H]C([2H])([2H])N1C(=O)c2cccc(OC(F)F)c2[C@H]2C[C@@H]1c1nn3ccc(-c4cnc(C5(N)CCC5)c(F)c4)nc3c12` [Example 221], the IC50 is < 25 nM.

Regarding `[2H]C([2H])([2H])N1C(=O)c2cccc(OC(F)F)c2[C@H]2C[C@@H]1c1nn3ccc(-c4cnc([C@]5(N)C[C@@](C)(O)C5)nc4)cc3c12` [Example 222], the IC50 is < 25 nM.

Regarding `C[C@]1(O)C[C@](N)(c2ncc(-c3nc4c5c(nn4cc3F)[C@H]3C[C@@H]5c4c(OC(F)F)cccc4C(=O)N3)cn2)C1` [Example 223], the IC50 was < 25 nM.

As to `C[C@]1(O)C[C@](N)(c2ccc(-c3ccn4nc5c(c4c3)[C@@H]3C[C@H]5NC(=O)c4cccc(OC(F)F)c43)cn2)C1` [Example 224], the 50% inhibitory concentration (IC50) is < 25 nM.

As to `[2H]C([2H])([2H])N1C(=O)c2cccc(OC(F)F)c2[C@H]2C[C@@H]1c1nn3cc(F)c(-c4cnc([C@]5(N)C[C@@H](O)C5)c(F)c4)nc3c12` [Example 225], the IC50 is < 25 nM.

Regarding `COc1cccc2c1[C@H]1C[C@H](c3nn4ccc(-c5cnc(C6(N)CCC6)nc5)cc4c31)N(C)C2=O` [Example 226], the IC50 was < 25 nM.

With `[2H]C([2H])([2H])N1C(=O)c2cccc(OC(F)F)c2[C@H]2C[C@@H]1c1nn3cc(F)c(-c4cnc([C@]5(N)C[C@@H](C#N)C5)nc4)nc3c12` [Example 227], the IC50 is < 25 nM.

Take `[2H]C([2H])([2H])N1C(=O)c2cccc(OC(F)F)c2[C@H]2C[C@@H]1c1nn3cc(F)c(-c4cnc(C5(N)CC(F)(F)C5)nc4)nc3c12` [Example 228]: the IC50 is < 25 nM.

On to `C[C@]1(O)C[C@](N)(c2ncc(-c3ccn4nc5c(c4c3)[C@@H]3C[C@H]5NC(=O)c4ccc(F)c(OC(F)F)c43)cn2)C1` [Example 229], for which the IC50 is < 25 nM.

As to `[2H]C([2H])([2H])N1C(=O)c2cccc(OC(F)F)c2[C@H]2C[C@@H]1c1nn3ccc(-c4cnc([C@]5(N)C[C@@](C)(C#N)C5)nc4C)nc3c12` [Example 230], the IC50 was < 25 nM.

As for `[2H]C([2H])([2H])N1C(=O)c2cccc(OC(F)F)c2[C@H]2C[C@@H]1c1nn3ccc(-c4cnc([C@]5(N)C[C@@](C)(C#N)C5)nc4C)cc3c12` [Example 231], the concentration for half-maximal inhibition (IC50) was < 25 nM.

For the compound `[2H]C([2H])([2H])N1C(=O)c2cccc(OC(F)F)c2[C@H]2C[C@@H]1c1nn3ccc(-c4cnc([C@]5(C#N)C[C@@](C)(N)C5)nc4)nc3c12` [Example 232], the IC50 lay in the range of 100 to 1000 nM.

With `NC1(c2ncc(-c3ccn4nc5c(c4c3)[C@@H]3C[C@H]5NC(=O)c4cccc(OC5CC5)c43)cn2)CCC1` [Example 233], the IC50 was 25 to 100 nM.

Consider `Cc1nc(C2(N)CCC2)ncc1-c1ccn2nc3c(c2c1)[C@@H]1C[C@H]3NC(=O)c2cccc(OC(F)F)c21` [Example 234], for which the IC50 is < 25 nM.

Turning to `C[C@]1(C#N)C[C@](N)(c2ncc(-c3nc4c5c(nn4cc3F)[C@H]3C[C@@H]5c4c(OC(F)F)cccc4C(=O)N3)cn2)C1` [Example 235], the IC50 was < 25 nM.

For `[2H]C([2H])([2H])N1C(=O)c2cccc(OC(F)F)c2[C@H]2C[C@@H]1c1nn3ccc(-c4cnc([C@]5(C#N)C[C@](C)(N)C5)nc4)nc3c12` [Example 236], the IC50 lay in the range of 100 to 1000 nM.

Turning to `[2H]C([2H])([2H])N1C(=O)c2cccc(OC(F)F)c2[C@H]2C[C@@H]1c1nn3cc(C)c(-c4cnc([C@]5(N)C[C@@](C)(C#N)C5)nc4)nc3c12` [Example 237], the IC50 was < 25 nM.

As for `[2H]C([2H])([2H])N1C(=O)c2cccc(OC(F)F)c2[C@H]2C[C@@H]1c1nn3ccc(-c4cnc(C5(N)CC5)nc4)nc3c12` [Example 238], the half-maximal inhibitory concentration (IC50) is < 25 nM.

On to `[2H]C([2H])([2H])N1C(=O)c2cccc(OC(F)F)c2[C@H]2C[C@@H]1c1nn3cc(F)c(-c4cnc(C5(N)CC5)nc4)nc3c12` [Example 239], for which the IC50 was < 25 nM.

As to `[2H]C([2H])([2H])N1C(=O)c2cccc(OC(F)F)c2[C@H]2C[C@@H]1c1nn3cc(F)c(-c4cnc([C@]5(N)C[C@@](C)(C#N)C5)nc4)cc3c12` [Example 240], the IC50 was < 25 nM.

Turning to `[2H]C([2H])([2H])N1C(=O)c2cccc(OC(F)F)c2[C@H]2C[C@@H]1c1nn3ccc(-c4cnc(C5(N)CCC5)nc4C)cc3c12` [Example 241], the IC50 is < 25 nM.

As for `[2H]C([2H])([2H])N1C(=O)c2cccc(OC(F)F)c2[C@H]2C[C@@H]1c1nn3ccc(-c4cnc(C5(N)CCC5)nc4C)nc3c12` [Example 242], the IC50 is < 25 nM.

For `[2H]C([2H])([2H])N1C(=O)c2cccc(OC(F)F)c2[C@H]2C[C@@H]1c1nn3ccc(-c4cnc(C5(NC)CC5)nc4)nc3c12` [Example 243], the IC50 was in the range of 25 to 100 nM.

For the compound `[2H]C([2H])([2H])N1C(=O)c2cccc(OC(F)F)c2[C@H]2C[C@@H]1c1nn3cc(F)c(-c4cnc([C@]5(N)C[C@](C)(C#N)C5)nc4)cc3c12` [Example 244], the IC50 is < 25 nM.

In the case of `[2H]C([2H])([2H])N1C(=O)c2cccc(OC(F)F)c2[C@H]2C[C@@H]1c1nn3cnc(-c4cnc(C5(N)CC5)nc4)cc3c12` [Example 245], the IC50 is < 25 nM.

`[2H]C([2H])([2H])N1C(=O)c2cccc(OC(F)F)c2[C@H]2C[C@@H]1c1nn3ccc(-c4cnc([C@]5(O)C[C@@](C)(N)C5)c(F)c4)cc3c12` [Example 246]: the IC50 was < 25 nM.

As to `[2H]C([2H])([2H])N1C(=O)c2cccc(OC(F)F)c2[C@H]2C[C@@H]1c1nn3ccc(-c4cnc(C5(N)COC5)cn4)cc3c12` [Example 247], the IC50 is < 25 nM.

In the case of `[2H]C([2H])([2H])N1C(=O)c2cccc(OC(F)F)c2[C@H]2C[C@@H]1c1nn3ccc(-c4cnc(C5(N)CCC5)nc4)cc3c12` [Example 248], the IC50 is < 25 nM.

With `[2H]C([2H])([2H])N1C(=O)c2cccc(OC(F)F)c2[C@H]2C[C@@H]1c1nn3ccc(-c4cnc([C@]5(O)C[C@@](C)(C#N)C5)c(F)c4)nc3c12` [Example 249], the IC50 was < 25 nM.

On to `[2H]C([2H])([2H])N1C(=O)c2cccc(OC(F)F)c2[C@H]2C[C@@H]1c1nn3ccc(-c4cnc(C5(N)CCC5)c(F)c4)cc3c12` [Example 250], for which the IC50 is < 25 nM.

Consider `[2H]C([2H])([2H])N1C(=O)c2cccc(OC)c2[C@H]2C[C@@H]1c1nn3ccc(-c4cnc(C5(N)CCC5)nc4)cc3c12` [Example 251], for which the IC50 was < 25 nM.

In the case of `[2H]C([2H])([2H])N1C(=O)c2cccc(OC(F)F)c2[C@H]2C[C@@H]1c1nn3ccc(-c4cnc([C@]5(O)C[C@@](C)(N)C5)cn4)cc3c12` [Example 253], the IC50 was < 25 nM.

Turning to `[2H]C([2H])([2H])N1C(=O)c2cccc(OC(F)F)c2[C@H]2C[C@@H]1c1nn3ccc(-c4cnc(C(C)(C)N)nc4)cc3c12` [Example 254], the half-inhibitory concentration (IC50) is < 25 nM.

Consider `[2H]C([2H])([2H])N1C(=O)c2cccc(OC(F)F)c2[C@H]2C[C@@H]1c1nn3ccc(-c4cnc(C5(N)CC5)nc4)cc3c12` [Example 255], for which the IC50 is < 25 nM.

Turning to `[2H]C([2H])([2H])N1C(=O)c2cccc(OC(F)F)c2[C@H]2C[C@@H]1c1nn3cc(F)c(-c4cnc([C@]5(O)C[C@@](C)(N)C5)c(F)c4)cc3c12` [Example 256], the half-inhibitory concentration (IC50) was < 25 nM.

With `[2H]C([2H])([2H])N1C(=O)c2cccc(OC(F)F)c2[C@H]2C[C@@H]1c1nn3ccc(-c4cnc([C@H](N)C5CC5)nc4)cc3c12` [Example 257], the IC50 was < 25 nM.

In the case of `[2H]C([2H])([2H])N1C(=O)c2cccc(OC(F)F)c2[C@H]2C[C@@H]1c1nn3ccc(-c4cnc([C@@H](N)C5CC5)nc4)cc3c12` [Example 258], the IC50 is < 25 nM.

For `[2H]C([2H])([2H])N1C(=O)c2cccc(OC(F)F)c2[C@H]2C[C@@H]1c1nn3cc(C)c(-c4cnc([C@]5(N)C[C@@](C)(C#N)C5)nc4)cc3c12` [Example 259], the IC50 was < 25 nM.

Regarding `[2H]C([2H])([2H])N1C(=O)c2cccc(OC(F)F)c2[C@H]2C[C@@H]1c1nn3cc(F)c(-c4cnc([C@]5(O)C[C@@](C)(N)C5)cn4)cc3c12` [Example 260], the IC50 lay in the range of 25 to 100 nM.
